These results are taken from patent US7638518B2, “Substituted pyrazole kinase inhibitors” (Janssen Pharmaceutica, priority 2006, dated 2009).

The term IC50 denotes the concentration needed to halve the response being measured. A low value points to inhibition by little substance.

One experiment has as its target T1, HER2 (Homo sapiens, UniProt P04626).
T1 construct: GST (Glutathione-S-Transferase) (N); HIS6 (N); Thrombin cleavage site (N); purchased Proqinase, Freiburg, Germany
The experiment is described as follows: HER2 kinase screening assay (33P-ATP FlashPlate). In kind it is biochemical. The note with it: 10 μM ATP, biotin-poly(GT) 4:1 substrate, 1 hr at 30° C. The procedure: (§1) A kinase reaction mixture was prepared containing 50 mM Tris-HCl pH=8, 10 mM MgCl2, 0.1 mM […], 1 mM DTT, 10 μM ATP, 0.025 μM biotinylated histone-H1 peptide substrate and 0.2 μCuries per well ^33P-γ-ATP (2000-3000 Ci/mmol). 70 μL of the kinase reaction mixture was dispensed into the well of a streptavidin coated FlashPlate™ (Cat. # SMP103, NEN, Boston, Mass.).
(§2) Test compound stock in 100% DMSO (1 μL) was added to the wells resulting in a final concentration of 1% DMSO in the reaction with a 100 μL final reaction volume. Each enzyme was diluted in 50 mM Tris-HCl pH=8.0, 0.1% BSA and 30 μL was added to each well to initiate the reaction. The reaction was incubated for one hour at 30° C. At the end of the 1 hr incubation, the reaction was terminated by aspirating the mixture from the plate and washing the wells twice with PBS containing 100 mM EDTA. The biotinylated peptide substrate became immobilized on the Flashplate™ and the incorporation of ^33P-γ-ATP was measured by reading the plate on a scintillation counter. Inhibition of the enzymatic activity was measured by observing a reduced amount of ^33P-γ-ATP incorporated into the immobilized peptide.
The HER2 construct consisted of a fusion of GST (Glutathione-S-Transferase), HIS6 Thrombin and the nucleotides encoding amino acids 679 to 1255 of HER-2 (Accession number M11730) (Proqinase, Freiburg, Germany). The assay used 200 ng of the N-terminal biotinylated peptide biotin-poly(GT) 4:1 (HER2) per well.
(§3) Aurora-A is a fusion protein containing a polyhistidine tag at the N terminus followed by the full length protein encoding the murine Aurora-A (Accession number GB BC014711) expressed and purified from sf9 insect cells. The assay used 400 ng of the N-terminal biotinylated peptide biotin-[…]-amide (Aurora-A) per well. A maximum and minimum signal for the assay was determined on each plate. The percent inhibition of a test compound was calculated according to the formula: […]
(§4) For a series of test concentrations, the IC50 was derived by graphing percent inhibition against the log of the concentrations tested for a given compound with results shown in Table 1.

The next experiment addresses T2, VEGFR2 (Rattus norvegicus, UniProt O08775).
T2 construct: polyhistidine (N)
The experiment can be described thus: VEGFR2 kinase screening assay (33P-ATP FlashPlate). The format is biochemical. The note with it: 10 μM ATP, rat VEGF-R2 kinase domain, 1 hr at 30° C.

A further experiment has as its system HCT-116 colon carcinoma. The experiment is described as follows: Cell proliferation inhibition assay (14C-thymidine incorporation), HCT-116. The format is cell-based. The note with it: Homo sapiens, HCT-116 cells. From the text:
(§5) The ability of a test compound to inhibit unregulated cell proliferation may be determined by measuring incorporation of ^14C-labelled thymidine into newly synthesized DNA within cell lines derived from carcinomas originating from several tissues. Accordingly, the anti-proliferative effect of a compound on cells with a variety of phenotypes may be determined.
(§6) Carcinoma cell lines include those such as HeLa cervical adenocarcinoma (American Type Culture Collection (ATCC), Virginia, Cat. #CCL-2), A375 malignant melanoma (ATCC CRL-1619), and HCT-116 colon carcinoma (CCL-247).
(§7) The carcinoma cells are trypsinized and counted. The cells (3000-8000 count) are added to each well of a 96-well CytoStar tissue culture treated scintillating microplate (Amersham #RPNQ0160) in complete medium (100 μL) and the plate is then incubated in complete medium for 24 hrs at 37° C. in an inert atmosphere containing 5% CO2. Test compound (1 μL) in 100% DMSO is added to the plate test-wells with DMSO only added to control-wells. The plate is incubated in complete medium for a second 24 hr period at 37° C. in an atmosphere containing 5% CO2.
(§8) An aliquot of a solution of Methyl ^14C-thymidine (56 mC/mmol) (NEN #NEC568 or Amersham #CFA532) and complete medium (20 uL to provide 0.2 μCi/well) is then added to each well and the plate is incubated for a third 24 hr period at 37° C. in an atmosphere containing 5% CO2. The plate contents are then discarded, the plate is washed twice with PBS (200 μL) and then PBS (200 μL) is added to each well. The plate is sealed and the degree of methyl ^14C-thymidine incorporation is quantified on a Packard Top Count.
(§9) A maximum and minimum signal for the assay was determined on each plate. The percent inhibition of a test compound was calculated according to the formula: […]
(§10) For a series of test concentrations, the IC50 was derived by graphing percent inhibition against the log of the concentrations tested for a given compound with results shown in Table 3.
A general note: Incorporation of labelled thymidine or its analogues reports DNA synthesis.

Experiment [1] concerns HeLa cervical adenocarcinoma. The experiment is described as follows: Cell proliferation inhibition assay (14C-thymidine incorporation), HeLa. The format is cell-based. The settings on record: Homo sapiens, HeLa cells.
Source text: as §5, §6, §7, §8, §9, §10

The target in the next experiment is T3, CDK1 (Homo sapiens, UniProt P06493).
T3 construct: purchased New England Biolabs, Beverly, Mass; 6020; host or cells: insect cells
The experiment can be described thus: CDK-1 kinase screening assay (33P-ATP FlashPlate). In kind it is biochemical. The settings on record: 10 μM ATP, biotinylated histone-H1 peptide substrate, 1 hr at 30° C. The procedure: as §1, §2
The CDK1 enzyme was isolated from insect cells expressing both the human CDK1 catalytic subunit (Accession number NM_001786) and its positive regulatory subunit cyclin B (New England Biolabs, Beverly, Mass.; Cat. # 6020). The assay used 30 ng of the N-terminal biotinylated peptide biotin-[…]-amide (Cyclin dependent kinase 1) per well.
as §3, §4

The next experiment concerns the target T4, Aurora-A (Mus musculus, UniProt P97477).
T4 construct: followed by the full length protein encoding the murine Aurora-A; polyhistidine (N); made in house; host or cells: sf9 insect cells
T4 sequence (P97477 1-395): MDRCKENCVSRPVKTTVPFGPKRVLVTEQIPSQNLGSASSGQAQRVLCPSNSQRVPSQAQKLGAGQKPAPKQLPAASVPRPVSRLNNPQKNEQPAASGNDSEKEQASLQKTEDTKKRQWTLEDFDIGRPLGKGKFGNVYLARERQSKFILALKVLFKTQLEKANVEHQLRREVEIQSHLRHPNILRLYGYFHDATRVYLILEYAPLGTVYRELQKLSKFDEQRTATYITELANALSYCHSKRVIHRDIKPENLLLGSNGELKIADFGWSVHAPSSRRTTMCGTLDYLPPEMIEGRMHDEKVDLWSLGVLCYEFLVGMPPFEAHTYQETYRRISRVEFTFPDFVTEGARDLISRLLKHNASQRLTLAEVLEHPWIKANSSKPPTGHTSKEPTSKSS
The experiment is described as follows: Aurora-A kinase screening assay (33P-ATP FlashPlate). The format is biochemical. The settings on record: 10 μM ATP, murine full length Aurora-A, 1 hr at 30° C.

A further experiment has as its system A375 malignant melanoma. The experiment can be described thus: Cell proliferation inhibition assay (14C-thymidine incorporation), A375. In kind it is cell-based. The note with it: Homo sapiens, A-375, A375 cells.
Source text: as §5, §6, §7, §8, §9, §10

T3 sequence (P06493 whole entry): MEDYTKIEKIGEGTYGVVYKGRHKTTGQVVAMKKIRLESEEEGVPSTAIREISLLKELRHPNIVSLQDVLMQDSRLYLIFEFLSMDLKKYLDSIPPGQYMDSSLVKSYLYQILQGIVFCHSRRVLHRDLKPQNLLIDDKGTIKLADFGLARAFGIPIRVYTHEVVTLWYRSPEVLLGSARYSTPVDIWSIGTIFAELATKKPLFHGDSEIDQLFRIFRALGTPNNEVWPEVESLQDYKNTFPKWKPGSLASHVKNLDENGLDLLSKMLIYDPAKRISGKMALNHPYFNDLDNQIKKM
T3 sequence (P14635 whole entry partner): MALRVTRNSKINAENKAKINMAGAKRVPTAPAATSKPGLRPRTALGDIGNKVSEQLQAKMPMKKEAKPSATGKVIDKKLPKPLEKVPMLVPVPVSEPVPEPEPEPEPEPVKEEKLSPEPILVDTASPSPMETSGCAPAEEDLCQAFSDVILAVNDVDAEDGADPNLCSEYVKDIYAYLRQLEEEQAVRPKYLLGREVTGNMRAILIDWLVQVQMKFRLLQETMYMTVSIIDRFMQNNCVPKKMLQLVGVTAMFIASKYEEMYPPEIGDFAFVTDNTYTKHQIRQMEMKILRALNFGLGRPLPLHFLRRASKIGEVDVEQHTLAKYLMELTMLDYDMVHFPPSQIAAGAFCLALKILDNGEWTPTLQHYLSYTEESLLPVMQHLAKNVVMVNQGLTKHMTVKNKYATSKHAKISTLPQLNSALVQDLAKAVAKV
T2 sequence (O08775 786-1343): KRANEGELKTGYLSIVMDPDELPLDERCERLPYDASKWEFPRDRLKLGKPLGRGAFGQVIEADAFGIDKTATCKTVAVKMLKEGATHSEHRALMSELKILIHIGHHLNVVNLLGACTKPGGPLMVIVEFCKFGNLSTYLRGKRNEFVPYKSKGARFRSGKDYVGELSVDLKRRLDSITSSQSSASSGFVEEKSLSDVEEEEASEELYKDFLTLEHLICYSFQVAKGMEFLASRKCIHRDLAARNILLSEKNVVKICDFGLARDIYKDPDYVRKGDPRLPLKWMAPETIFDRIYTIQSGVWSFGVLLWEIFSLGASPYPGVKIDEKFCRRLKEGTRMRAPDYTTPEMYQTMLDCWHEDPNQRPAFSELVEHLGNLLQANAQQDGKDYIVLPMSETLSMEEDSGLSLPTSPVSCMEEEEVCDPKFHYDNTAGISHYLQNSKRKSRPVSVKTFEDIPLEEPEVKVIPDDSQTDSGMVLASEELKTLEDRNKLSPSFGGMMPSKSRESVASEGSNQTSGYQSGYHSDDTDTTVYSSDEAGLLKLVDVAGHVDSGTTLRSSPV
T1 sequence (P04626 679-1255): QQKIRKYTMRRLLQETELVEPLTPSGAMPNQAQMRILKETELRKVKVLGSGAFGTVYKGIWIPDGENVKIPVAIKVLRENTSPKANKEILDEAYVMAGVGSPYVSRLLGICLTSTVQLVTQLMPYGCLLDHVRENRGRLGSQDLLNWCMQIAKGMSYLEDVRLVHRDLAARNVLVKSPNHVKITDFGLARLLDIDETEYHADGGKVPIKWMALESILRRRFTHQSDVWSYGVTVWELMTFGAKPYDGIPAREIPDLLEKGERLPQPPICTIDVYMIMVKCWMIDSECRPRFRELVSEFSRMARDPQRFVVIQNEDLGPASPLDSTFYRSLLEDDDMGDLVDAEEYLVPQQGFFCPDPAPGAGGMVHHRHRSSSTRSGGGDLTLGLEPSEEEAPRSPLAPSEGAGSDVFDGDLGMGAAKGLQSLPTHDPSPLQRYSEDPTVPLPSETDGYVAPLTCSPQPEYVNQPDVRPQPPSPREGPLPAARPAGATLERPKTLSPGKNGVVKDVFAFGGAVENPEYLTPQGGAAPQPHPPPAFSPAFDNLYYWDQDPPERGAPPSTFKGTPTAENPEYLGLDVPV

In the case of `CCNCc1cncc(C=Cc2c[nH]nc2-c2nc3ccc(OC)cc3[nH]2)c1` [Cpd 1, ethyl-(5-{2-[3-(6-methoxy-1H-benzoimidazol-2-yl)-1H-pyrazol-4-yl]-vinyl}-pyridin-3-ylmethyl)-amine], the IC50 against HER2 worked out at 3030 nM; against VEGFR2, 821 nM; in the experiment with HCT-116 colon carcinoma, 187 nM; in experiment [1] it was 615 nM; against CDK1, 4.59 nM; against Aurora-A it was 588 nM. Also, the IC50 with A375 malignant melanoma was determined as 553 nM.

Take `COc1ccc2nc(-c3n[nH]cc3C=Cc3cccnc3)[nH]c2c1` [Cpd 2, 6-methoxy-2-[4-(2-pyridin-3-yl-vinyl)-1H-pyrazol-3-yl]-1H-benzoimidazole]: the IC50 at VEGFR2 was found to be 967 nM; in the experiment on HCT-116 colon carcinoma it was 2160 nM; in experiment [1], 1800 nM; against CDK1, 32.8 nM; against Aurora-A, 513 nM; in the experiment on A375 malignant melanoma, 2500 nM.

For the compound `COc1ccc2nc(-c3n[nH]cc3C=Cc3ccc(N)nc3)[nH]c2c1` [Cpd 3, 5-{2-[3-(6-Methoxy-1H-benzoimidazol-2-yl)-1H-pyrazol-4-yl]-vinyl}-pyridin-2-ylamine], the concentration for half-maximal inhibition (IC50) worked out at 6840 nM at HER2; 636 nM on VEGFR2; 1040 nM in the experiment on HCT-116 colon carcinoma; 992 nM in experiment [1]; 23 nM against CDK1; 625 nM at Aurora-A. In the experiment with A375 malignant melanoma, the IC50 came to 1030 nM.

Turning to `COc1ccc2nc(-c3n[nH]cc3C=Cc3cnccc3C)[nH]c2c1` [Cpd 5, 6-methoxy-2-{4-[2-(4-methyl-pyridin-3-yl)-vinyl]-1H-pyrazol-3-yl}-1H-benzoimidazole], the IC50 in the experiment with HCT-116 colon carcinoma worked out at 3190 nM; in experiment [1] it was 2760 nM; on CDK1, 157 nM; against Aurora-A, 549 nM; in the experiment with A375 malignant melanoma, 4300 nM.

For `COc1ccc2nc(-c3n[nH]cc3C=Cc3cncc4ccccc34)[nH]c2c1` [Cpd 6, 4-{2-[3-(6-methoxy-1H-benzoimidazol-2-yl)-1H-pyrazol-4-yl]-vinyl}-isoquinoline], the IC50 came to 613 nM against VEGFR2; 2680 nM with HCT-116 colon carcinoma; 2820 nM in experiment [1]; 148 nM against CDK1; 2960 nM in the experiment on A375 malignant melanoma.

For `COc1ccc2nc(-c3n[nH]cc3C=Cc3cncc(C#N)c3)[nH]c2c1` [Cpd 7, 5-{2-[3-(6-methoxy-1H-benzoimidazol-2-yl)-1H-pyrazol-4-yl]-vinyl}-nicotinonitrile], the figures for the IC50 against VEGFR2, at CDK1 and on Aurora-A were 1730 nM, greater than 1000 nM and 4190 nM, respectively.

`CN1CCN(c2ccc3nc(-c4n[nH]cc4C=Cc4cccnc4)[nH]c3c2)CC1` [Cpd 8, 6-(4-methyl-piperazin-1-yl)-2-[4-(2-pyridin-3-yl-vinyl)-1H-pyrazol-3-yl]-1H-benzoimidazole]: the IC50 at HER2 was 9320 nM; against VEGFR2, 286 nM; in the experiment on HCT-116 colon carcinoma it was 194 nM; in experiment [1], 464 nM; against CDK1 it was 29.1 nM; against Aurora-A it was greater than 10000 nM. The midpoint of inhibition in the experiment with A375 malignant melanoma, the IC50, lay at 864 nM.

On to `COC(=O)c1cncc(C=Cc2c[nH]nc2-c2nc3ccc(OC)cc3[nH]2)c1` [Cpd 9, 5-{2-[3-(6-methoxy-1H-benzoimidazol-2-yl)-1H-pyrazol-4-yl]-vinyl}-nicotinic acid methyl ester], for which the IC50 was 1280 nM on VEGFR2; 3130 nM with HCT-116 colon carcinoma; 4370 nM in experiment [1]; 886 nM against CDK1; greater than 100000 nM against Aurora-A; 3100 nM with A375 malignant melanoma.

As to `COc1cncc(C=Cc2c[nH]nc2-c2nc3ccc(OC)cc3[nH]2)c1` [Cpd 10, 6-methoxy-2-{4-[2-(5-methoxy-pyridin-3-yl)-vinyl]-1H-pyrazol-3-yl}-1H-benzoimidazole], the IC50 on HER2 was determined as 12000 nM; on VEGFR2, 653 nM; in the experiment with HCT-116 colon carcinoma, 748 nM; in experiment [1] it was 886 nM; at CDK1, 46.6 nM; at Aurora-A, 399 nM. Moreover, the IC50 with A375 malignant melanoma is 913 nM.

Consider `CCNC(=O)c1cncc(C=Cc2c[nH]nc2-c2nc3ccc(OC)cc3[nH]2)c1` [Cpd 11, N-ethyl-5-{2-[3-(6-methoxy-1H-benzoimidazol-2-yl)-1H-pyrazol-4-yl]-vinyl}-nicotinamide], for which the IC50 against HER2 is 36600 nM; at VEGFR2 it was 1350 nM; with HCT-116 colon carcinoma, 2460 nM; in experiment [1] it was 3700 nM; at CDK1, 111 nM; against Aurora-A, greater than 100000 nM. Also, the half-inhibitory concentration (IC50) with A375 malignant melanoma was found to be 3620 nM.
